Measured values published in patent US9315520B2, “2-amino-6-methyl-4,4a,5,6-tetrahydropyrano[3,4-d][1,3]thiazin-8a(8H)-yl-1,3-thiazol-4-yl amides” (Pfizer Inc., priority 2014, dated 2016).
Where two headings read alike, the source gives them in different places.

Experiments:
GSH Incubation Assay [1] = type: in vitro ADME; conditions: incubation in human liver microsomes in the presence of GSH
[2] = tested on: sAPPβ, the primary cleavage product of BACE1, in H4 human neuroglioma cells over-expressing the wild-type human APP695; test: sAPPβ Whole-Cell Assay (WCA); type: cell-based; conditions: 18 h
Experimental: sAPPβ Whole-Cell Assay (WCA):
sAPPβ, the primary cleavage product of BACE1, was determined in H4 human neuroglioma cells over-expressing the wild-type human APP695. […] The colorimetric reaction was read by an EnVision (PerkinElmer) plate-reader.

[3] = target: P-glycoprotein (MDR1-transfected MDCK cell line) (Homo sapiens (Human), UniProt P08183); test: Pgp Liability MDR1 Er; type: in vitro ADME; conditions: Papp BA/AB
P-glycoprotein (MDR1-transfected MDCK cell line), sequence (P08183 whole entry): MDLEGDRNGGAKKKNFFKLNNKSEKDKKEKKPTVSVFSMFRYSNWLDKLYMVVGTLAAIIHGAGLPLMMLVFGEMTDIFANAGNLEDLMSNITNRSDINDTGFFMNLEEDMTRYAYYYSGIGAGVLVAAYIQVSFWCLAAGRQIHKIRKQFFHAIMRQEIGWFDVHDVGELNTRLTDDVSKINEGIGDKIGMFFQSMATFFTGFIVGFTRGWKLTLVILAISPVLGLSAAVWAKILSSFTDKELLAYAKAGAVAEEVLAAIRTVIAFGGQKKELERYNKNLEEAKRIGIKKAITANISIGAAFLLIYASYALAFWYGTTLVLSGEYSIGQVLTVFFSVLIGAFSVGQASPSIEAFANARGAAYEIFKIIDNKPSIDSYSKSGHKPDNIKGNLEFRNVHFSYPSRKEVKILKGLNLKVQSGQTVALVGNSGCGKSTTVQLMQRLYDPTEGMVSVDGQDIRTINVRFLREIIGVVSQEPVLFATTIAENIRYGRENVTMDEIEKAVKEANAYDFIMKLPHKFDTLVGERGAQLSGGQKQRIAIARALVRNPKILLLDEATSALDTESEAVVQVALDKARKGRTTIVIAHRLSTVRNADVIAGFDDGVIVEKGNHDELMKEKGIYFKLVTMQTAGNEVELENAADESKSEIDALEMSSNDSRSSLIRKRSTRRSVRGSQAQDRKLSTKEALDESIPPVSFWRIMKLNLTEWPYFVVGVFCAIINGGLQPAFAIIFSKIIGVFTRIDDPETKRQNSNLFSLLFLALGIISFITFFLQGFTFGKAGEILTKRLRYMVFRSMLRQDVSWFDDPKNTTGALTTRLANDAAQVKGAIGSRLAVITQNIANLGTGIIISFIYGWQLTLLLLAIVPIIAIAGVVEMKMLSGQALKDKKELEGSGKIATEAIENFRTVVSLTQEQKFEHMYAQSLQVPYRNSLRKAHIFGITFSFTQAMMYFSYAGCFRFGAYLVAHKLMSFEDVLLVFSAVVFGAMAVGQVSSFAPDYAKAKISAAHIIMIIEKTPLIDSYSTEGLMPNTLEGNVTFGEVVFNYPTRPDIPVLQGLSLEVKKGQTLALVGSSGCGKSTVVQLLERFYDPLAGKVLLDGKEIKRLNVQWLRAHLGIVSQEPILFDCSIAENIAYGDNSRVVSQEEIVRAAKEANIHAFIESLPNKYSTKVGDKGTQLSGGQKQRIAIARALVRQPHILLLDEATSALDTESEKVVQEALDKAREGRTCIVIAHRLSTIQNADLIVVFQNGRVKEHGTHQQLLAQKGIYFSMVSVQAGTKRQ
Excerpt: (§1) MDR1 Efflux Ratio (MDR Er) from MDR1-transfected MDCK line cell line represents the ratio of permeability, Papp BA/AB. Procedure utilized from (Feng, B.; Mills, J. B.; Davidson, R. E.; Mireles, R. J.; Janiszewski, J. S.; Troutman, M. D.; de Morais, S. M. In vitro P-glycoprotein assays to predict the in vivo interactions of P-glycoprotein with drugs in the central nervous system. Drug Metab. Dispos. 2008, 36, 268-275.

[4] = HLM Clint (clearance in human liver microsomes); type: in vitro ADME; conditions: for CLint scaled: human
pKa = type: physicochemical; conditions: Measurement determined at Analyza
human BACE2 = human BACE2 (Homo sapiens (Human), UniProt Q9Y5Z0); test: BACE2 binding assay (SPA); conditions: ratio of IC50 from BACE2 and BACE1 binding assays, pH 6.0
human BACE2, sequence (Q9Y5Z0 63-518): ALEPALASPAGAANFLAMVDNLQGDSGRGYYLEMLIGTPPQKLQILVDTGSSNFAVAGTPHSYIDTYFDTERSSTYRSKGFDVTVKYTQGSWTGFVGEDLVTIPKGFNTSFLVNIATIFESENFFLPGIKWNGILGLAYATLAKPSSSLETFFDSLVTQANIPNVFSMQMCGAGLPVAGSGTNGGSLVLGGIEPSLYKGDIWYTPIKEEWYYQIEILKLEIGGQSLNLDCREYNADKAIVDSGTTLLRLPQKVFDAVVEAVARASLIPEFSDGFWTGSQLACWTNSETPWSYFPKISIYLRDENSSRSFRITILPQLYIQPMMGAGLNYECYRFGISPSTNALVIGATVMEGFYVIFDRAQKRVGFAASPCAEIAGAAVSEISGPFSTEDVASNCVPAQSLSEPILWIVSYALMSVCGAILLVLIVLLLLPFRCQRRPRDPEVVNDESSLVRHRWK
Excerpt: BACE2/BACE1 Binding Ratio:
The BACE1 and BACE2 binding assays measured beta-site amyloid precursor protein-cleaving enzyme (BACE) binding as a decrease in the counts of radioligand bound in a scintillation proximity assay (SPA). Utilizing a radiolabeled small molecule BACE active site binding inhibitor and crude HEK cell membrane preparations over-expressing full length BACE1 or BACE2, the binding of enzyme by test compound was monitored as a reduction of specific counts bound at pH 6.0. Full length human BACE1 or BACE2 over-expressed in HEK cells was prepared by Pfizer scientists. Frozen stock cell paste was reacted in 50 mM sodium acetate buffer (pH=6.0) containing 3H-(4aR,6R,8aS)-8a-(2,4-difluorophenyl)-6-(1-methyl-1H-pyrazol-4-yl)-4,4a,5,6,8,8a-hexahydropyrano[3,4-d][1,3]thiazin-2-amine ligand, SPA bead and 60 μM to 600 pM of test compound in an assay volume of 27 uL. The compound plate also contained positive (BACE inhibitor) and negative (DMSO) control wells. The binding was carried out at room temperature for 30 minutes and then the plates were read on a TriLux Microbeta reader to determine the number of counts bound.

BACE1 = BACE1 (Homo sapiens (Human), UniProt P56817); test: BACE1 Cell-Free Assay (fluorescence polarization); type: biochemical
BACE1, sequence (P56817 46-457): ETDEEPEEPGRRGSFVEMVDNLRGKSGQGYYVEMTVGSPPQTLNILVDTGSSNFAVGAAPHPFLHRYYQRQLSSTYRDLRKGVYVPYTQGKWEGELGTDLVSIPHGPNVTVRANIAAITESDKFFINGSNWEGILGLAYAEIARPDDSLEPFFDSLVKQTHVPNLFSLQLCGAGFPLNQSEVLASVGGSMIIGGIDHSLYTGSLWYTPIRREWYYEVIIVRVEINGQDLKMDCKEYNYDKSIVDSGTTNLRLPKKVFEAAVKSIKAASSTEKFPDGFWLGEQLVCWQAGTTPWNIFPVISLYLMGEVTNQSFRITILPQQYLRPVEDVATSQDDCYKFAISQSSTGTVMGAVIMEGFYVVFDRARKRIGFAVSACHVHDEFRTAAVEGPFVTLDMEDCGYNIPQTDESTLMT

hERG channel = hERG channel (Homo sapiens (Human), UniProt Q12809); test: hERG Patch Clamp Assay; type: cell-based
hERG channel, sequence (Q12809 whole entry): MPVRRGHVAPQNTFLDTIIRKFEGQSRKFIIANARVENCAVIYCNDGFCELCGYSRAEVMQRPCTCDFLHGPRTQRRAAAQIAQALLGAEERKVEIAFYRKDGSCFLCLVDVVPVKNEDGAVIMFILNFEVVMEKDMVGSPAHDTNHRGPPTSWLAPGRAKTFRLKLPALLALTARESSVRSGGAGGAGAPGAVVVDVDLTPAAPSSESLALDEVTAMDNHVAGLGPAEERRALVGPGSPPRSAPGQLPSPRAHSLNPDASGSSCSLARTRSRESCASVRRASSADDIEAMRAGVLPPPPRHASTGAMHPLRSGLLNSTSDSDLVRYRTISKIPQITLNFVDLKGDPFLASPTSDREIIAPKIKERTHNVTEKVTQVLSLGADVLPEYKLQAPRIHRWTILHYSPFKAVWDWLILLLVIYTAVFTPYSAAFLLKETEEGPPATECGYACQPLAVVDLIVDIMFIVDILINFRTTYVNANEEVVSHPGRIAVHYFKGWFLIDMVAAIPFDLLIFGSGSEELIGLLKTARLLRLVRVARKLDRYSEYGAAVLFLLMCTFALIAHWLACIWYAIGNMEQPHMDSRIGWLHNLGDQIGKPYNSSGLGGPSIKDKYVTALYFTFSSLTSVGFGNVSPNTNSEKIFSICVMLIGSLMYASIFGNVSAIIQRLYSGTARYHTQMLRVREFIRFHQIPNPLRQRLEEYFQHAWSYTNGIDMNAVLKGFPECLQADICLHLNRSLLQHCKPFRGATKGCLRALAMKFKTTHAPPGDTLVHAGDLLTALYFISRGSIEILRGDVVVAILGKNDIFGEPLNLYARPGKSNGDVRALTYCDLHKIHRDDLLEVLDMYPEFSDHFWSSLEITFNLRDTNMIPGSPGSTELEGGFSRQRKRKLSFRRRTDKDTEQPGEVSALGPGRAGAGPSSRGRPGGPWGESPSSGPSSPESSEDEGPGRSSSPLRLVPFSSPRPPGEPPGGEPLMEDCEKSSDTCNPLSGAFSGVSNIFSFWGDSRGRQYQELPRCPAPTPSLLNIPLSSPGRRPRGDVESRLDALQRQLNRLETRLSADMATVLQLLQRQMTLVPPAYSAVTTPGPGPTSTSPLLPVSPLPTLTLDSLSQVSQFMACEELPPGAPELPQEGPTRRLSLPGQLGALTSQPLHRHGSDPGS
Experimental: After a ˜30 minute recovery period, experiments were initiated.
hERG Potassium Channel Current Recordings and Data Analysis:
The intracellular recording saline was composed of (in […]): 70 KF, 60 KCl, 15 NaCl, 5 EGTA, 5 HEPES, and adjusted to pH 7.2±0.1 with KOH. […] Test pulses were delivered at a frequency of 0.25 Hz. Up to 4 different concentrations were studied on each cell, each exposure lasting 5 minutes or until steady-state effects were observed. […] Using Sophion Qpatch Assay Software, the amplitude of the peak outward hERG current upon repolarizing ramp was measured. Current amplitude was determined by taking the average of the last 5 current peaks under each treatment condition. […] When possible, a concentration-response curve was plotted and the data were fitted using Qpatch software to determine an IC50. The P<0.05 was considered statistically significant.

GSH Incubation Assay [5] = type: in vitro ADME; conditions: for Observed GSH adducts: Incubations with glutathione (50 mM) at 37° C. in buffer for 4 hours; for formation of GSH adducts: following incubations
Experimental: The test compound (10 μM in DMSO) was incubated with L-glutathione (50 mM, prepared in 100 mM potassium phosphate buffer) at 37° C. for 4 hours and then analyzed by HPLC-UV/MS/MS without work-up. Thermo Accela HPLC and Velos Pro Orbitrap Elite (S/N: SN05189B) operating in positive mode with a source voltage of 3.5 kV with data dependant processing. HPLC with a Phenomenox Kinetex C18, 1.7 μM, 2.1×100 mm. column (P/N: 00D-4475-AN), 5% acetonitrile/95% 0.1% formic acid for 0.5 min then a 7.0 min linear gradient to 40% acetonitrile/60% 0.1% formic acid, 400 μL/min., column temperature 45° C. Product assignments were based on high resolution mass spectrometer fragmentation.

CYP2D6 = CYP2D6 (Homo sapiens (Human), UniProt P10635); test: General Multi-Point Cocktail DDI IC50 Assay
CYP2D6, sequence (P10635 whole entry): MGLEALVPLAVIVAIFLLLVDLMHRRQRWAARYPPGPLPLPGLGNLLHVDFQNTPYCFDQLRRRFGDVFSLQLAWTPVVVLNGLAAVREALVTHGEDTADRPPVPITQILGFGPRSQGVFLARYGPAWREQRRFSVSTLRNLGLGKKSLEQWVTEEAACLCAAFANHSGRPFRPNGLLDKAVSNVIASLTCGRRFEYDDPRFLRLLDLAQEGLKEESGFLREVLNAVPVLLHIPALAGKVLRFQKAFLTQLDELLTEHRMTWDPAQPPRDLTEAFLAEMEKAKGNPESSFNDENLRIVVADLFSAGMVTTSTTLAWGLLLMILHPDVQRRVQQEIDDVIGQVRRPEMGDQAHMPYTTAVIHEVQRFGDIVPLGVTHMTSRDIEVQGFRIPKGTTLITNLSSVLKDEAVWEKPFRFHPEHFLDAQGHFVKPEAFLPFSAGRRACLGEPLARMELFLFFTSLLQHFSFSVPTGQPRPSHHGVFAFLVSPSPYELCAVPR
Experimental: General Multi-Point Cocktail DDI IC50 Assay Conditions:
The incubation volume is 0.1 mL, utilizing a 384-well plate format. […] Substrate concentrations are near Km values that had been previously determined and incubation times are selected based on determinations of reaction velocity linearity. […] Samples are directly injected on an HPLC/MS/MS system. A Biomek FX workstation is used for liquid handling and sample incubation.

P-glycoprotein (MDR1) = P-glycoprotein (MDR1) (Homo sapiens (Human), UniProt P08183); test: Pgp Liability MDR1 Er; type: in vitro ADME; conditions: dog; MDR1-transfected MDCK cell line; ratio of permeability, Papp BA/AB
P-glycoprotein (MDR1), sequence (P08183 whole entry): as the sequence (P08183 whole entry) above
Excerpt: as §1

[6] = MDR1-transfected MDCK cell line, ratio of permeability
[7] = Table 4, read-out: BACE1 Cell Free IC50
[8] = CHO cell transfected with hERG gene, automated Qpatch HT system
[9] = CHO cells transfected with hERG
[10] = geometric mean of 2-4 determinations unless otherwise indicated (b: ≧5; c: single determination), read-out: BACE1 Cell-free Assay IC50

Row | SMILES | formation of GSH adducts (GSH Incubation Assay [1]) | Aniline Structural Alert (Aniline structural alert) | IC50 [2] [nM] | Pgp liability MDR1 Er [3, 6] | HLM CLint [4] | pKa (pKa) | BACE2/BACE1 Binding Ratio (human BACE2) | IC50 (BACE1; [7]) [nM] | IC50 (hERG channel; [8]) [nM] | Observed GSH adducts (GSH Incubation Assay [5]) | formation of GSH adducts (GSH Incubation Assay [5]) | IC50 ([2]; Homo sapiens) [nM] | Pgp liability MDR1 Er ([3]; MDR1-transfected MDCK) | CLint scaled [4] [mL/min/kg] | IC50 (CYP2D6) [nM] | IC50 (CYP2D6; human, microsomes, pH 7.4) [nM] | pKa (pKa; read-out: pKa) | IC50 (hERG channel; [9]) [nM] | efflux ratio (P-glycoprotein (MDR1)) | IC50 (BACE1; [10]) [nM]
1 | C[C@H]1C[C@H]2CSC(N)=N[C@@]2(c2cc(NC(=O)c3ccc(C#N)cn3)cs2)CO1 [Comparator 5] | formation of chemical adducts | No |  |  |  |  |  |  |  |  |  |  |  |  |  |  |  |  |  | 
2 | NC1=N[C@@]2(c3cc(NC(=O)c4ccc(OC(F)F)cn4)ccc3F)CO[C@@H](C(F)(F)F)C[C@H]2CS1 [Comparator 6, reference compound] |  | Yes | < 1 | 3.2 | <12.8 mL/min/kg | 7.7 | 1.0 | 6 |  |  |  |  |  |  |  |  |  |  |  | 
3 | C[C@H]1C[C@H]2CSC(N)=N[C@@]2(c2cc(NC(=O)c3ccc(Cl)cn3)ccc2F)CO1 [Comparator 7, reference compound] |  | Yes | < 1 | 3.03 | 34.4 mL/min/kg^ | 8.2 | 1.0 | 1 | 200 |  |  |  |  |  |  |  |  |  |  | 
4 | C[C@H]1C[C@H]2CSC(N)=N[C@@]2(c2nc(NC(=O)c3ccc(OC(F)F)cn3)cs2)CO1 [Example 1, N-{2-[(4aR,6S,8aR)-2-amino-6-methyl-4,4a,5,6-tetrahydropyrano[3,4-d][1,3]thiazin-8a(8H)-yl]-1,3-thiazol-4-yl}-5-(difluoromethoxy)pyridine-2-carboxamide] |  |  |  |  | <8 mL/min/kg |  |  |  | 9900 | Negative | not detected | 5 | < 2.5 | < 8 | > 30000 | > 30000 | 6.8 | > 5000 |  | 
5 | C[C@H]1C[C@H]2CSC(N)=N[C@@]2(c2nc(NC(=O)c3cnc(OC(F)F)cn3)cs2)CO1 [Example 2, N-{2-[(4aR,6S,8aR)-2-amino-6-methyl-4,4a,5,6-tetrahydropyrano[3,4-d][1,3]thiazin-8a(8H)-yl]-1,3-thiazol-4-yl}-5-(difluoromethoxy)pyrazine-2-carboxamide] |  | No |  |  | <8 mL/min/kg |  |  | 73 | 23600 | Negative | not detected | 7 | < 2.5 | < 8 | > 30000 | > 30000 | 6.8 | > 5000 | 1.8 | 73
6 | C[C@H]1C[C@H]2CSC(N)=N[C@@]2(c2nc(NC(=O)c3ccc(Cl)cn3)cs2)CO1 [Example 7, N-{2-[(4aR,6S,8aR)-2-amino-6-methyl-4,4a,5,6-tetrahydropyrano[3,4-d][1,3]thiazin-8a(8H)-yl]-1,3-thiazol-4-yl}-5-chloropyridine-2-carboxamide] |  | No |  |  | <8 mL/min/kg |  |  |  | 9000 | Negative | not detected | 4 | < 2.5 | < 8 | > 30000 | > 30000 | 6.9 | > 5000 |  | 
7 | Cc1cc(OC(F)F)cnc1C(=O)Nc1csc([C@]23CO[C@@H](C)C[C@H]2CSC(N)=N3)n1 [Example 45, N-{2-[(4aR,6S,8aR)-2-amino-6-methyl-4,4a,5,6-tetrahydropyrano[3,4-d][1,3]thiazin-8a(8H)-yl]-1,3-thiazol-4-yl}-5-(difluoromethoxy)-3-methylpyridine-2-carboxamide] |  | No |  |  | <8 mL/min/kg |  |  | 23 |  | Negative | not detected | 3 |  | < 8 | > 30000 | > 30000 | 6.9 |  |  | 23
